Reference: PubChem BioAssay (NCI)
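All cell lines were grown in 96-well plates and treated with compound for 48 hours. GI50: concentration for 50% inhibition of growth. At the TGI there is no net growth.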

Columns and labels:
Assay in all cases: NCI-60 cell line screen, 48 h
CCRF-CEM leukemia = test system: CCRF-CEM leukemia
HCT-116 colon = test system: HCT-116 colon
HCC-2998 colon = test system: HCC-2998 colon
M14 melanoma = test system: M14 melanoma
HT29 colon = test system: HT29 colon
SK-MEL-5 melanoma = test system: SK-MEL-5 melanoma
SK-MEL-2 melanoma = test system: SK-MEL-2 melanoma
786-0 renal = test system: 786-0 renal
SF-295 CNS = test system: SF-295 CNS
MOLT-4 leukemia = test system: MOLT-4 leukemia
SF-539 CNS = test system: SF-539 CNS
MCF7 breast = test system: MCF7 breast
NCI-H23 lung = test system: NCI-H23 lung
SNB-19 CNS = test system: SNB-19 CNS
A498 renal = test system: A498 renal
MDA-MB-435 = test system: MDA-MB-435
TK-10 renal = test system: TK-10 renal
MDA-MB-231 breast = test system: MDA-MB-231 breast
RPMI-8226 leukemia = test system: RPMI-8226 leukemia
SW-620 colon = test system: SW-620 colon
SNB-75 CNS = test system: SNB-75 CNS
SR leukemia = test system: SR leukemia
T-47D breast = test system: T-47D breast
A549 NSCLC = test system: A549 NSCLC
DU-145 prostate = test system: DU-145 prostate
OVCAR-3 ovarian = test system: OVCAR-3 ovarian
NCI-H460 lung = test system: NCI-H460 lung
BT-549 breast = test system: BT-549 breast
KM12 colon = test system: KM12 colon
NCI-H226 lung = test system: NCI-H226 lung
OVCAR-4 ovarian = test system: OVCAR-4 ovarian
HOP-92 NSCLC = test system: HOP-92 NSCLC
EKVX NSCLC = test system: EKVX NSCLC
RXF 393 renal = test system: RXF 393 renal
UACC-257 melanoma = test system: UACC-257 melanoma
HCT-15 colon = test system: HCT-15 colon
SK-OV-3 ovarian = test system: SK-OV-3 ovarian
SF-268 CNS = test system: SF-268 CNS
SN12C renal = test system: SN12C renal
IGROV1 ovarian = test system: IGROV1 ovarian
NCI-H522 lung = test system: NCI-H522 lung
K-562 leukemia = test system: K-562 leukemia
LOX IMVI melanoma = test system: LOX IMVI melanoma
NCI/ADR-RES ovarian = test system: NCI/ADR-RES ovarian
HOP-62 NSCLC = test system: HOP-62 NSCLC
UO-31 renal = test system: UO-31 renal
OVCAR-8 ovarian = test system: OVCAR-8 ovarian
MALME-3M melanoma = test system: MALME-3M melanoma
SK-MEL-28 melanoma = test system: SK-MEL-28 melanoma
CAKI-1 renal = test system: CAKI-1 renal
OVCAR-5 ovarian = test system: OVCAR-5 ovarian
U251 CNS = test system: U251 CNS
HL-60(TB) leukemia = test system: HL-60(TB) leukemia
UACC-62 melanoma = test system: UACC-62 melanoma
HS 578T breast = test system: HS 578T breast
COLO 205 colon = test system: COLO 205 colon
ACHN renal = test system: ACHN renal
PC-3 prostate = test system: PC-3 prostate

SMILES: O=C(NC(=S)Nc1ccccn1)c1ccccc1
- GI50 (CCRF-CEM leukemia): > 100 µM
- TGI (CCRF-CEM leukemia): > 100 µM
- GI50 (HCT-116 colon): > 100 µM
- TGI (HCT-116 colon): > 100 µM
- GI50 (HCC-2998 colon): > 100 µM
- TGI (HCC-2998 colon): > 100 µM
- GI50 (M14 melanoma): > 100 µM
- TGI (M14 melanoma): > 100 µM
- GI50 (HT29 colon): > 100 µM
- TGI (HT29 colon): > 100 µM
- GI50 (SK-MEL-5 melanoma): > 100 µM
- TGI (SK-MEL-5 melanoma): > 100 µM
- GI50 (SK-MEL-2 melanoma): > 100 µM
- TGI (SK-MEL-2 melanoma): > 100 µM
- GI50 (786-0 renal): > 100 µM
- TGI (786-0 renal): > 100 µM
- GI50 (SF-295 CNS): > 100 µM
- TGI (SF-295 CNS): > 100 µM
- GI50 (MOLT-4 leukemia): > 100 µM
- TGI (MOLT-4 leukemia): > 100 µM
- GI50 (SF-539 CNS): > 100 µM
- TGI (SF-539 CNS): > 100 µM
- GI50 (MCF7 breast): 1.97 µM
- TGI (MCF7 breast): > 100 µM
- GI50 (NCI-H23 lung): > 100 µM
- TGI (NCI-H23 lung): > 100 µM
- GI50 (SNB-19 CNS): > 100 µM
- TGI (SNB-19 CNS): > 100 µM
- GI50 (A498 renal): 50.8 µM
- TGI (A498 renal): > 100 µM
- GI50 (MDA-MB-435): > 100 µM
- TGI (MDA-MB-435): > 100 µM
- GI50 (TK-10 renal): > 100 µM
- TGI (TK-10 renal): > 100 µM
- GI50 (MDA-MB-231 breast): > 100 µM
- TGI (MDA-MB-231 breast): > 100 µM
- GI50 (RPMI-8226 leukemia): > 100 µM
- TGI (RPMI-8226 leukemia): > 100 µM
- GI50 (SW-620 colon): > 100 µM
- TGI (SW-620 colon): > 100 µM
- GI50 (SNB-75 CNS): > 100 µM
- TGI (SNB-75 CNS): > 100 µM
- GI50 (SR leukemia): > 100 µM
- TGI (SR leukemia): > 100 µM
- GI50 (T-47D breast): 5.98 µM
- TGI (T-47D breast): > 100 µM
- GI50 (A549 NSCLC): > 100 µM
- TGI (A549 NSCLC): > 100 µM
- GI50 (DU-145 prostate): > 100 µM
- TGI (DU-145 prostate): > 100 µM
- GI50 (OVCAR-3 ovarian): 93.4 µM
- TGI (OVCAR-3 ovarian): > 100 µM
- GI50 (NCI-H460 lung): > 100 µM
- TGI (NCI-H460 lung): > 100 µM
- GI50 (BT-549 breast): > 100 µM
- TGI (BT-549 breast): > 100 µM
- GI50 (KM12 colon): > 100 µM
- TGI (KM12 colon): > 100 µM
- GI50 (NCI-H226 lung): > 100 µM
- TGI (NCI-H226 lung): > 100 µM
- GI50 (OVCAR-4 ovarian): 24.4 µM
- TGI (OVCAR-4 ovarian): > 100 µM
- GI50 (HOP-92 NSCLC): 83.9 µM
- TGI (HOP-92 NSCLC): > 100 µM
- GI50 (EKVX NSCLC): 85.2 µM
- TGI (EKVX NSCLC): > 100 µM
- GI50 (RXF 393 renal): > 100 µM
- TGI (RXF 393 renal): > 100 µM
- GI50 (UACC-257 melanoma): > 100 µM
- TGI (UACC-257 melanoma): > 100 µM
- GI50 (HCT-15 colon): 70.7 µM
- TGI (HCT-15 colon): > 100 µM
- GI50 (SK-OV-3 ovarian): > 100 µM
- TGI (SK-OV-3 ovarian): > 100 µM
- GI50 (SF-268 CNS): > 100 µM
- TGI (SF-268 CNS): > 100 µM
- GI50 (SN12C renal): > 100 µM
- TGI (SN12C renal): > 100 µM
- GI50 (IGROV1 ovarian): 61.7 µM
- TGI (IGROV1 ovarian): > 100 µM
- GI50 (NCI-H522 lung): > 100 µM
- TGI (NCI-H522 lung): > 100 µM
- GI50 (K-562 leukemia): > 100 µM
- TGI (K-562 leukemia): > 100 µM
- GI50 (LOX IMVI melanoma): > 100 µM
- TGI (LOX IMVI melanoma): > 100 µM
- GI50 (NCI/ADR-RES ovarian): > 100 µM
- TGI (NCI/ADR-RES ovarian): > 100 µM
- GI50 (HOP-62 NSCLC): > 100 µM
- TGI (HOP-62 NSCLC): > 100 µM
- GI50 (UO-31 renal): 39.2 µM
- TGI (UO-31 renal): > 100 µM
- GI50 (OVCAR-8 ovarian): > 100 µM
- TGI (OVCAR-8 ovarian): > 100 µM
- GI50 (MALME-3M melanoma): > 100 µM
- TGI (MALME-3M melanoma): > 100 µM
- GI50 (SK-MEL-28 melanoma): > 100 µM
- TGI (SK-MEL-28 melanoma): > 100 µM
- GI50 (CAKI-1 renal): > 100 µM
- TGI (CAKI-1 renal): > 100 µM
- GI50 (OVCAR-5 ovarian): > 100 µM
- TGI (OVCAR-5 ovarian): > 100 µM
- GI50 (U251 CNS): > 100 µM
- TGI (U251 CNS): > 100 µM
- GI50 (HL-60(TB) leukemia): > 100 µM
- TGI (HL-60(TB) leukemia): > 100 µM
- GI50 (UACC-62 melanoma): > 100 µM
- TGI (UACC-62 melanoma): > 100 µM
- GI50 (HS 578T breast): 71.5 µM
- TGI (HS 578T breast): > 100 µM
- GI50 (COLO 205 colon): > 100 µM
- TGI (COLO 205 colon): > 100 µM
- GI50 (ACHN renal): > 100 µM
- TGI (ACHN renal): > 100 µM
- GI50 (PC-3 prostate): > 100 µM
- TGI (PC-3 prostate): > 100 µM
